Results from patent publication US20240335462A1, “SULFUR/PHOSPHORUS-CONTAINING ARYL COMPOUND AND APPLICATION THEREOF” (MEDSHINE DISCOVERY INC., priority 2021, published 2024).

Experiments:
TYK2 JH2 pseudokinase = TYK2 JH2 pseudokinase (Homo sapiens, UniProt P29597); assay: Inhibitory activity on TYK2 JH2 pseudokinase (TR-FRET); format: binding; details: 60 min room temperature, read-out: Kinase half maximal inhibitory concentration IC50 TYK2 JH2
Description: In this experiment, the inhibitory effect of compounds on TYK2 JH2 pseudokinase was tested using the method of time-resolved fluorescence resonance energy transfer (TR-FRET). In the experiment, TYK2 JH2 or JAK1 JH2 pseudokinase can simultaneously bind to fluorescently labeled Tracer and Tb antibody to form a “sandwich structure”. Tb antibody, functioning as a fluorescent donor, produces fluorescence at a wavelength of 495 nm under the excitation of light at a specific wavelength. Tracer, functioning as a fluorescent acceptor, can receive fluorescence at a wavelength of 495 nm and thus produce fluorescence at a wavelength of 520 nm, i.e., a time-resolved fluorescence resonance energy transfer (TR-FRET) signal, only when it is within the “sandwich structure”, i.e., when it is sufficiently close to Tb antibody. When the compound is added to compete with Tracer for binding to the pseudokinase, the binding of Tracer decreases, leading to a weakened TR-FRET signal. The inhibitory activity of the compound binding to the pseudokinase can be reflected by the ratio of signal values at 520 nm/495 nm.
The working solution consists of the following components: HEPES (pH 7.5) at a final concentration of 20 mM; MgCl2 at a final concentration of 10 mM; Brij-35 at a final concentration of 0.015%; DTT at a final concentration of 2 mM; and BSA at a final concentration of 50 μg/mL.
• a) The compound was dissolved in DMSO to achieve a storage concentration of 10 mM. • b) Various concentrations of the compound, 200 times the final concentration, were prepared in a compound dilution plate and transferred to an Echo plate. • c) The Echo instrument was used to transfer 150 nL of the compound from the Echo plate to a 384-well experimental plate. • d) 5 μL of TYK2 JH2 kinase, at three times the final concentration, was added to the 384-well experimental plate. • e) 5 μL of Tb, at three times the final concentration, was added to the 384-well experimental plate. • f) 5 μL of Tracer, at three times the final concentration, was added to the 384-well experimental plate. • g) The plate was centrifuged for 30 seconds and then incubated at room temperature for 60 minutes. • h) The fluorescence signal values at 520 nm/495 nm were measured using an Envision plate reader (PerkinElmer).
Data analysis was performed using the XL-Fit software to determine the IC50 of the compounds.

[1] = test system: JAK1/3 signaling pathway (IL-2/pSTAT5); assay: IL-2-stimulated pSTAT5 in human PBMC (flow cytometry); format: cell-based; details: CD4-positive cells
Description: (§1) The purpose of this experiment was to detect the inhibitory effect of the compounds on cytokine-activated JAK-STAT signaling pathways in human peripheral blood mononuclear cells (PBMC).
(§2) • a) PBMCs frozen in liquid nitrogen were thawed in a 37° C. water bath, and culture medium was added. The mixture was then centrifuged at 320 g for 3 minutes. • b) Cells were resuspended in culture medium, counted, and the cell concentration was adjusted to 5×10^5 cells/mL with culture medium. Subsequently, the cell suspension was inoculated into […] 96-well round-bottom plates, with 200 μL per well. The plates were incubated at 37° C. with 5% CO2 for 90 minutes. • c) Different concentrations of the test compound (starting at 2 μM, 5-fold serial dilution, a total of 8 concentrations) were added, followed by incubation at 37° C. with 5% CO2 for 30 minutes. • d) IL-6 (final concentration at 20 ng/mL) was added to the first round-bottom plate and incubated at 37° C. with 5% CO2 for 15 minutes. • e) IFNα (final concentration at 1000 U/mL) was added to the second round-bottom plate and incubated at 37° C. with 5% CO2 for 15 minutes. • f) IL-2 (final concentration at 4 ng/mL) was added to the third round-bottom plate and incubated at 37° C. with 5% CO2 for 15 minutes. • g) GM-CSF (final concentration at […]) was added to the fourth round-bottom plate and incubated at 37° C. with 5% CO2 for 15 minutes. • h) Cells were centrifuged at 320 g for 3 minutes, and each well was washed once with 200 μL of staining solution. • i) 50 μL of staining solution containing human CD33 antibody was added to each well of the GM-CSF-stimulated culture plate, and 50 μL of staining solution containing CD4 antibody was added to the remaining three culture plates. The staining was performed at 4° C. for 30 minutes. The cells were washed twice with the staining solution. • j) 100 μL of fixation buffer was added to each well, and the cells were fixed at 4° C. for 15 minutes. The cells were washed once with the staining solution. • k) 100 μL of permeabilization buffer was added to each well, and the cells were permeabilized at 4° C. for 20 minutes. The cells were washed twice with the staining solution. • l) 50 μL of staining solution containing human pSTAT1 antibody was added to each well of the IL-6 and IFN-α-stimulated culture plates, and 50 μL of staining solution containing human pSTAT5 antibody was added to each well of the IL-2 and GM-CSF-stimulated culture plates. The staining was performed at room temperature for 15 minutes. The cells were washed twice with the staining solution. • m) The cells were resuspended in 150 μL of staining solution. • n) The fluorescence intensity of pSTAT1 (stimulated by IL-6 and IFN-α) or pSTAT5 (stimulated by IL-2) in CD4-positive cells was detected using flow cytometer. The fluorescence intensity of pSTAT5 (stimulated by GM-CSF) in CD33-positive cells was also detected.
(§3) Data analysis was performed using Flowjo software to determine the IC50 of the compounds.

[2] = test system: JAK2/2 signaling pathway (GM-CSF/pSTAT5); assay: GM-CSF-stimulated pSTAT5 in human PBMC (flow cytometry); format: cell-based; details: CD33-positive cells
Description: as §1, §2, §3

TYK2 JH2 pseudokinase, sequence (P29597 589-875 limits assumed): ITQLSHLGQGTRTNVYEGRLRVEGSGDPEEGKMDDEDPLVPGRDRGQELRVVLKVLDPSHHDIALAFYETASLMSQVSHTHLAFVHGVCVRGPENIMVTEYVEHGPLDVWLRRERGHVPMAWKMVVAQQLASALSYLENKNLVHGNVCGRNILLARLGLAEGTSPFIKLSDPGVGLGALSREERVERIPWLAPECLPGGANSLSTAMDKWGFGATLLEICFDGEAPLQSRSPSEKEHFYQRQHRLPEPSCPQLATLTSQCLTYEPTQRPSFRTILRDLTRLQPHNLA

Question: What does the source list for `CNC(=O)c1nnc(NC(=O)C2CC2)cc1Nc1cccc(-c2ncc(S(=N)(=O)C(C)C)cn2)c1OC` (single isomer, unassigned) [WX-011A]?
Answer: IC50 (TYK2 JH2 pseudokinase): 0.1 nM; IC50 [1]: 1310 nM; IC50 [2]: 1660 nM

Question: For `CNC(=O)c1nnc(NC(=O)C2CC2)cc1Nc1cccc(-c2ncc(S(=N)(=O)C(C)C)cn2)c1OC` (single isomer, unassigned) [WX-011B], which IC50 (TYK2 JH2 pseudokinase) is on record?
Answer: 0.08 nM

Question: And the IC50 [1]?
Answer: 773 nM

Question: And the IC50 [2]?
Answer: 1350 nM

Question: Which IC50 (TYK2 JH2 pseudokinase) does the source give for `CNC(=O)c1nnc(NC(=O)C2CC2)cc1Nc1cccc(-c2ccc(S(=N)(=O)C(C)C)cn2)c1OC` (single isomer, unassigned) [WX-012A] here?
Answer: 0.08 nM

Question: `CNC(=O)c1nnc(NC(=O)C2CC2)cc1Nc1cccc(-c2ccc(S(=N)(=O)C(C)C)cn2)c1OC` (single isomer, unassigned) [WX-012B] was tested. Which IC50 (TYK2 JH2 pseudokinase) did it give?
Answer: 0.08 nM

Question: Which results are given for `CNC(=O)c1cnc(NC(=O)C2CC2)cc1Nc1cccc(-c2ccc(S(=O)(=O)C(C)C)cn2)c1OC.Cl` [Hydrochloride of WX-020]?
Answer: IC50 (TYK2 JH2 pseudokinase): 0.08 nM; IC50 [1]: 1400 nM; IC50 [2]: 1070 nM

Question: What does the source list for `CNC(=O)c1cnc(NC(=O)C2CC2)cc1Nc1cccc(-c2ncc(S(=O)(=O)C(C)C)cn2)c1OC` [WX-019]?
Answer: IC50 (TYK2 JH2 pseudokinase): 0.09 nM; IC50 [1]: 1580 nM; IC50 [2]: 1440 nM

Question: How did the IC50 (TYK2 JH2 pseudokinase) turn out when `CNC(=O)c1nnc(NC(=O)C2CC2)cc1Nc1cccc(-c2ccc(P(=O)(C3CC3)C3CC3)cn2)c1OC` [WX-021] was run?
Answer: 0.08 nM

Question: And the IC50 [1]?
Answer: 540 nM

Question: And the IC50 [2]?
Answer: 580 nM
